Data published in patent US8586505B2 (SDS Biotech K. K., priority 2009, dated 2013).

Legend:
[1] = test system: Pseudoperonospora cubensis; assay: Test of examining control effect on Pseudoperonospora cubensis (potted cucumber plants); assay type: in vivo; settings: 96 h, 10% wettable powder adjusted to 125 ppm, 15 ml/pot sprayed on potted cucumber plants one day before spray inoculation, assessed after 1 day wet chamber and 3 days greenhouse, read-out: Determination of control effect (preventive value) on Pseudoperonospora cubensis
How it was run: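 Cucumber plants (Sagamihanjiro, 2.5-leaf stage) sprayed with 125 ppm compound solution from 10% wettable powder, 15 ml/pot. One day later, spray-inoculated with P. cubensis conidia (1.0×10^4 cells/ml), kept 1 day at 21° C wet, then 3 days in greenhouse. Preventive value derived from lesion area relative to untreated plants.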

Phytophthora infestans = assay: whole plant or invertebrate; assay type: in vivo; settings: in Solanum lycopersicum, 96 h, read-out: Determination of control effect (preventive value)
Tetranychus urticae eggs = assay: Test of examining effect on Tetranychus urticae eggs (ovicidal rate); assay type: in vivo; settings: 144 h, 0.4 ml sprayed, unhatched eggs counted six days later, read-out: Determination (ovicidal rate)
Method: Thereafter, the released female adults were removed. […] Six days later, the number of unhatched eggs was counted, and an ovicidal rate was calculated.

Sphaerotheca fuliginea = assay: Test of examining control effect on Sphaerotheca fuliginea (potted cucumber plants); assay type: in vivo; settings: Podosphaera fuliginea, 336 h; 10% wettable powder adjusted to 125 ppm, 15 ml/pot sprayed on potted cucumber plants one day before spray inoculation; assessed after 14 days in greenhouse; read-out: Determination of control effect (preventive value) on Sphaerotheca fuliginea
How it was run: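 Cucumber plants (Sagamihanjiro, 2nd leaf stage) sprayed with 125 ppm compound (from 10% wettable powder), inoculated one day later with S. fuliginea conidia (1.0×10^5 cells/ml); lesion area scored after 14 days in greenhouse. Preventive value vs untreated; ≥60% high, <60% low control.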

Structure (SMILES) | pest or weed control at 125 µg/mL [1] [%] | pest or weed control at 125 ppm (Phytophthora infestans) [%] | pest or weed control at 250 ppm (Tetranychus urticae eggs) [%] | pest or weed control at 125 µg/mL (Sphaerotheca fuliginea) [%] | melting point [°C]
CCCCC(CC#Cc1ccccc1)Nc1ncnc2sccc12 (stereo not drawn) [compound 269] | 60 to 100 | 0 to 60 | 60 to 80 | 60 to 100 | 
CC(CC#Cc1ccc(C(C)C)cc1)Nc1ncnc2sccc12 (stereo not drawn) [compound 241] | 60 to 100 | 60 to 100 | ≥ 95 | 60 to 100 | 
CC(CC#Cc1ccc(S(F)(F)(F)(F)F)cc1Cl)Nc1ncnc2ccccc12 (stereo not drawn) [compound 283] | 60 to 100 | 60 to 100 | 60 to 80 | 60 to 100 | 
CC(CC#Cc1ccc(F)cc1C(F)(F)F)Nc1ncnc2ccccc12 (stereo not drawn) [compound 286] | 60 to 100 | 60 to 100 | 80 to 95 | 60 to 100 | 
CC(C)(C)c1ccc(C#CCCNc2ncnc3sccc23)cc1 [compound 20] | 60 to 100 | 0 to 60 | 60 to 80 | 60 to 100 | 
Cc1cc(F)ccc1C#CCC(C)Nc1ncnc2sccc12 (stereo not drawn) [compound 246] | 60 to 100 | 60 to 100 | 80 to 95 | 60 to 100 | 
CC(CC#Cc1c(Cl)cc(C(F)(F)F)cc1Cl)Nc1ncnc2sccc12 (stereo not drawn) [compound 262] | 60 to 100 |  | ≥ 95 | 60 to 100 | 
CC(CC#Cc1ccc(Cl)cc1C(F)(F)F)Nc1ncnc2cccc(Cl)c12 (stereo not drawn) [compound 350] | 60 to 100 | 0 to 60 | ≥ 95 | 60 to 100 | 
CC(CC#Cc1ccc(Cl)cc1)Nc1ncnc2sccc12 (stereo not drawn) [compound 232] | 60 to 100 | 60 to 100 | 80 to 95 | 60 to 100 | 
C(#Cc1ccc(C2CCCCC2)cc1)CCNc1ncnc2ccccc12 [compound 109] | 60 to 100 | 0 to 60 | 80 to 95 | 60 to 100 | 
CCc1ccc(C#CCC(C)Nc2ncnc3sccc23)cc1 (stereo not drawn) [compound 240] | 60 to 100 | 60 to 100 | 60 to 80 |  | 
CC(CC#Cc1ccc(F)cc1C(F)(F)F)Nc1ncnc2sccc12 (stereo not drawn) [compound 249] | 60 to 100 | 60 to 100 | ≥ 95 | 60 to 100 | 
Fc1cc2ncnc(NCCC#Cc3ccc(Cl)cc3C(F)(F)F)c2cc1F [compound 355] | 60 to 100 | 60 to 100 | ≥ 95 | 60 to 100 | 
CC(CC#Cc1ccc(S(F)(F)(F)(F)F)cc1Cl)Nc1ncnc2sccc12 (stereo not drawn) [compound 253] | 60 to 100 | 0 to 60 | 60 to 80 | 60 to 100 | 
Cc1ccc(C#CCCNc2ncnc3sccc23)cc1 [compound 19] | 60 to 100 | 0 to 60 | 60 to 80 | 60 to 100 | 
CC(F)c1ncnc(NCCC#Cc2ccc(Cl)cc2C(F)(F)F)c1Cl (stereo not drawn) [compound 377] | 60 to 100 | 0 to 60 | ≥ 95 | 60 to 100 | 
CC(F)c1ncnc(NCCC#Cc2ccccc2)c1Cl (stereo not drawn) [compound 376] | 60 to 100 | 60 to 100 | ≥ 95 | 60 to 100 | 

Structure (SMILES) | pest or weed control at 125 µg/mL [1] [%] | pest or weed control at 125 ppm (Phytophthora infestans) [%] | pest or weed control at 250 ppm (Tetranychus urticae eggs) [%] | pest or weed control at 125 µg/mL (Sphaerotheca fuliginea) [%] | melting point [°C]
CC(CC#Cc1ccc(C(F)(F)F)cc1F)Nc1ncnc2ccccc12 (stereo not drawn) [compound 288] | 60 to 100 | 0 to 60 | ≥ 95 | 60 to 100 | 
CC(CC#Cc1ccc(Cl)cc1C(F)(F)F)Nc1ncnc2ccccc12 (stereo not drawn) [compound 285] | 60 to 100 | 60 to 100 | ≥ 95 | 60 to 100 | 
Cc1ccccc1C#CCC(C)Nc1ncnc2sccc12 (stereo not drawn) [compound 239] | 60 to 100 | 60 to 100 | 80 to 95 | 60 to 100 | 
CC(CC#Cc1ccccc1Cl)Nc1ncnc2sccc12 (stereo not drawn) [compound 231] | 60 to 100 | 60 to 100 | 60 to 80 | 60 to 100 | 
CC(CC#Cc1ccc(Cl)cc1C(F)(F)F)Nc1ncnc2ncccc12 (stereo not drawn) [compound 384] | 60 to 100 | 0 to 60 | ≥ 95 | 60 to 100 | 
CC(CC#Cc1ccc(Cl)cc1C(F)(F)F)Nc1ncnc(C(C)F)c1Cl (stereo not drawn) [compound 382] | 60 to 100 | 0 to 60 | ≥ 95 | 60 to 100 | 
Cc1c(Cl)ncnc1NCCC#Cc1ccccc1 [compound 356] | 60 to 100 | 60 to 100 | 80 to 95 | 60 to 100 | 
CC(CC#Cc1ccc(C(F)(F)F)cc1)Nc1ncnc2sccc12 (stereo not drawn) [compound 235] | 60 to 100 | 60 to 100 | ≥ 95 | 60 to 100 | 
CC(CC#Cc1ccc(S(F)(F)(F)(F)F)cc1)Nc1ncnc2ccccc12 (stereo not drawn) [compound 277] | 60 to 100 | 0 to 60 | ≥ 95 | 60 to 100 | 
CC(CC#Cc1ccc(S(F)(F)(F)(F)F)cc1)Nc1ncnc2sccc12 (stereo not drawn) [compound 238] | 60 to 100 | 60 to 100 | ≥ 95 | 60 to 100 | 
CC(CC#Cc1cc(F)ccc1C(F)(F)F)Nc1ncnc2sccc12 (stereo not drawn) [compound 248] | 60 to 100 | 0 to 60 | 60 to 80 | 60 to 100 | 
O=[N+]([O-])c1ccccc1C#CCCNc1ncnc2sccc12 [compound 38] | 60 to 100 | 60 to 100 | 60 to 80 |  | 
OCc1nc(C#CCCNc2ncnc3sccc23)cs1 [compound 70] | 60 to 100 | 60 to 100 |  | 60 to 100 | 193
COc1ccc(Cl)cc1C#CCCNc1ncnc2ccccc12 [compound 179] | 60 to 100 | 60 to 100 |  | 60 to 100 | 147 to 149
CCOc1ccccc1C#CCCNc1ncnc2ccccc12 [compound 118] | 60 to 100 | 60 to 100 |  | 60 to 100 | 119 to 120
OCc1cnccc1C#CCCNc1ncnc2ccccc12 [compound 201] | 60 to 100 | 0 to 60 |  | 60 to 100 | 182 to 186
